# Biological target: T1, WT hSLACK (Homo sapiens, UniProt Q5JUK3)
# T1 construct: host or cells: CHO-K1
# T1 sequence (Q5JUK3 1-1235 isoform Q5JUK3-3): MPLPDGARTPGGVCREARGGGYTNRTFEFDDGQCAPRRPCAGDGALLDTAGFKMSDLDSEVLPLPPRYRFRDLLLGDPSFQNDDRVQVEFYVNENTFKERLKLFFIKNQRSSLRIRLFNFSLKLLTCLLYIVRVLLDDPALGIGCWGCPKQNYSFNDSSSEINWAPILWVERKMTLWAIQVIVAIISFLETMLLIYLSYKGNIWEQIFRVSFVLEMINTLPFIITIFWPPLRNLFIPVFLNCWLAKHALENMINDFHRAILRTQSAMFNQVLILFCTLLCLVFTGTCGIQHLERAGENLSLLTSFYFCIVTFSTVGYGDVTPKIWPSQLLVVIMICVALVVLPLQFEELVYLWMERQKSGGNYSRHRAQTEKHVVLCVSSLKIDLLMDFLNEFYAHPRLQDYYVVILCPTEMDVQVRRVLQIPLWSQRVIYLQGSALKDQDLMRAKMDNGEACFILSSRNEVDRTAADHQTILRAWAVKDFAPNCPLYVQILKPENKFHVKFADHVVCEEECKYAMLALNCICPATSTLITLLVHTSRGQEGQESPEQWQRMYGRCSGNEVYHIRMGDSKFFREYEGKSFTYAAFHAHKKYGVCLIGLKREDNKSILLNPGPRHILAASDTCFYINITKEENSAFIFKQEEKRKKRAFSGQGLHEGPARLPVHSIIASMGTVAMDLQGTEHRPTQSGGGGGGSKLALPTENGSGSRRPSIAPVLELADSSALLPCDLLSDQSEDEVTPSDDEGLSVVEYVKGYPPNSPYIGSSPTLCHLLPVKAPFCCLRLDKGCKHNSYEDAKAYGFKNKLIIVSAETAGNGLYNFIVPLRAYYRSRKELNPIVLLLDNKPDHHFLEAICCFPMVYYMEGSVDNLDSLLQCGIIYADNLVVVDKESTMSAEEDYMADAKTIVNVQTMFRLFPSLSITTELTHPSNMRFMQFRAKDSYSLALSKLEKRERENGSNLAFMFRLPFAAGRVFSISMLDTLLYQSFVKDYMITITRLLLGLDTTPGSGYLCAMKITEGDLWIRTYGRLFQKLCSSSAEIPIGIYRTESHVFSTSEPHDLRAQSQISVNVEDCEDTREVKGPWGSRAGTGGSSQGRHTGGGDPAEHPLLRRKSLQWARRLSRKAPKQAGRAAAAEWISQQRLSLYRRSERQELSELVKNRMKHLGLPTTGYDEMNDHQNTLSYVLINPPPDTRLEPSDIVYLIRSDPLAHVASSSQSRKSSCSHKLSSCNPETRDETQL
# Assay: Whole-cell automated patch-clamp (APC) in CHO cells stably expressing WT hSLACK
# Assay type: cell-based
# Settings: for IC50: whole-cell APC, CHO cells stably expressing WT hSLACK, averages n ≥ 3, read-out: SLACK IC50; for SLACK Imax: maximum inhibition at 30 µM test compound standardized to VU0606170 (set at 100%), WT hSLACK
# Experimental: All new analogs were tested in our APC assay using CHO cells stably expressing WT SLACK using a concentration-response format with concentrations ranging from 0.125 to 30 μM in half-log steps and a minimum of three cells (replicates) per concentration series. […] Still, there were some notable results. For example, substitution at the 4-position was largely unfavorable regardless of the nature of the substituent (21, 24, 27, 30, and 33) apart from the 4-fluoro analog 18. […] As the trifluoromethyl group is similar in electronegativity to chlorine, but larger than both methyl and chlorine, perhaps the steric bulk of the trifluoromethyl is to blame for the poor potency of these analogs. With the exception of the fluoro (16–18) and cyano (28–30) analogs, substitution at the 3-position was favorable for SLACK activity, with 3-methoxy analog 32 standing out in this set.
# Stably transfected monoclonal HEK293 cell lines expressing Slick, Maxi-K α1/β3, Maxi-K α1/β4, CaV3.2, GIRK 1/2, KV2.1, KV7.2, NaV1.7, and TASK-1 were generated as previously described. Stably transfected monoclonal HEK293 cell lines expressing hERG were generated as previously described. CHO-K1 cells expressing human Slack and disease-associated human Slack mutations, G288S and A934T, were generated by transfecting a PiggyBac TRE mammalian expression vector (VectorBuilder, Chicago, IL, USA) containing KCNT1. FuGENE 6 (Promega, Madison, WI, USA) transfection reagent and protocol, together with Opti-MEM (Thermo Fisher Scientific, Walkham, MA, USA), were utilized.
# Automated patch-clamp recording was performed with a SyncroPatch 768 PE system (Nanion, Munich, Germany) as previously described. Whole-cell recordings were performed at room temperature. Cells were harvested by first washing with PBS without Mg^2+ or Ca^2+ (Gibco, Billings, MT, USA) to remove cell culture media, followed by dissociation with TryPLE (Gibco, Billings, MT, USA). Cells were then resuspended and diluted to 100,000 cells/mL in external solution. External solution contained 105 mM NaCl, 4 mM KCl, 1 mM MgCl2, 5 mM CaCl2, 10 mM HEPES, and 40 mM N-Methyl-D-glucamine chloride, titrated to pH of 7.4 and osmolarity of 300 mOsm/kg; internal solution contained 70 mM NaCl, 70 mM KF, 10 mM KCl, 5 mM EGTA, and 5 mM HEPES, titrated to a pH of 7.2 and osmolarity of 295 mOsm/kg.
# The APC protocol was set as follows: Cells were held at a […] of −80 mV for 100 ms, then a ramp protocol was performed from −100 mV to 80 mV at 0.4 mV/ms, followed by holding the cell at −80 mV for another 100 ms, then steps were performed at −20 mV, 0 mV, +20 mV, +40 mV, and +60 mV for 100 ms of each step. Whole-cell currents were measured at 0 mV and normalized to current after external buffer addition. […] To obtain the concentration-response relationship graphs and IC50 values, we take the median value of the last 7 current amplitude values obtained for each set of data points collected for a given concentration at a particular step.
Compound,IC50 [µM],SLACK Imax [%]
COc1cccc(Cn2c(=O)c3c(nc(N(Cc4cccc(F)c4)CC4CC4)n3C)n(C)c2=O)c1 [Analog 79],1,
CCCCN(Cc1cccc(F)c1)c1nc2c(c(=O)n(Cc3cccc(OC)c3)c(=O)n2C)n1C [Analog 78],1.2,
COc1cccc(Cn2c(=O)c3c(nc(N(Cc4ccc(F)cc4)CC4CC4)n3C)n(C)c2=O)c1 [Analog 81],1.5,
CN(Cc1cccc(F)c1)c1nc2c(c(=O)n(Cc3ccccc3)c(=O)n2C)n1C [Analog 48],0.89,100
CCCCN(Cc1ccc(F)cc1)c1nc2c(c(=O)n(Cc3cccc(OC)c3)c(=O)n2C)n1C [Analog 80],0.7,
COc1cccc(Cn2c(=O)c3c(nc(N(C)Cc4ccccc4)n3C)n(C)c2=O)c1 [Analog 32],0.8,100
CCCCN(Cc1ccccc1)c1nc2c(c(=O)n(Cc3ccccc3)c(=O)n2C)n1C [Analog 70],0.94,100
Cn1c(N(Cc2ccccc2)CC2CC2)nc2c1c(=O)n(Cc1ccccc1)c(=O)n2C [Analog 71],0.98,100

# Reference: paper PMC11173529, “Structure–Activity Relationship Studies in a Series of Xanthine Inhibitors of SLACK Potassium Channels” (Molecules, 2024)
